Data published in patent publication US20240076380A1, “DEVICE AND METHODS FOR RAPIDLY SCREENING AND TREATING CLINICAL CANCER PATIENTS WITH IMMUNOREGULATORY DRUGS” (Shanghai Lide Biotech Co., Ltd., priority 2022, published 2024).

Legend:
[1] = system: metastatic tumor tissue (tumor cells and immune cells) of a patient with ovarian cancer in PVDF capsule tubes; test: IO-FIVE capsule test in nude mice, ovarian cancer patient of Example 3 (CTG cell viability and FACS, day 10); assay type: in vivo, human; settings: tumor sample after addition of autologous TIL cells (C/T 8)
Excerpt: Experimental Animals, Sample Collection, and Cell Processing were the Same as in Example 1.
The following was collected for cell phenotyping identification: a single cell suspension of patient tumor tissue samples before purification, tumor cells after purification, enriched immune cells (containing CD3+ T cells) eluted from the column, and a cell suspension in which tumor cells after purification and immune cells were mixed in a certain ratio (1.5:1 to 15:1), to yield a final cell count of 0.1 to 0.3 million cells. […]
Cells within the Tubing The basic operational steps were the same as those in Example 1. According to the data analyzed by flow cytometry, the CD45− tumor cells and CD3+ T cells were mixed in a certain ratio (about 1.5:1-15:1). […]
3-21 days after administration (day 10 here), the mice were euthanized, and the PVDF tubes were removed. Cell viability was quantified by the CellTiter-Glo chemiluminescence method, and the relative ratio and basic phenotype of tumor cells and immune cells in PVDF tubes were detected by flow cytometry.
Adjusted to the viability value of the cells in the control vehicle group (as shown in FIG. 9), the proliferation viability of all cells in the drug administration group was calculated, and then the efficacy of the drug to be tested was calculated. […]

[2] = system: patient with ovarian cancer; settings: monotherapy
[3] = system: peripheral blood tumor cells and immune cells of acute myeloid leukemia (AML) patients in PVDF capsule tubes; test: IO-FIVE capsule test in nude mice, two AML patients #123 and #124 of Example 5 (CTG cell viability and FACS, day 14); assay type: in vivo, human
Experimental: BALB/c Nude mice (available from Jiangsu Jicui Yaokang Biotechnology Co. Ltd.) aged 6-8 weeks were ordered from the supplier and kept in the animal house at SPF level. The animals were adaptively kept for at least 3 days before the start of the experiment.
Fresh peripheral blood samples from two acute myeloid leukemia (AML) patients (in the acute phase of AML) were collected and placed in anticoagulant tubes and transported to the central laboratory by cold chain (2-8° C.) within a short period of time.
The peripheral blood samples of different patients were transferred into the biological safety cabinet. The cells were centrifuged using a gradient centrifugation gel (available from SIGMA) with a density of 1.077 g/mL at room temperature. […] After resuspension in cell culture medium (available from Gibco), the cells were counted. […]
3-21 days after administration (e.g., day 14 here), the mice were euthanized, and the PVDF tubes were removed. Cell viability was quantified by the CellTiter-Glo chemiluminescence method. Changes in the relative ratio and phenotype of tumor cells and immune cells in PVDF tubes were detected by flow cytometry. Bioinformatic changes of tumor cells and immune cells in PVDF capsule tubes of clinical samples at day 0 or day 10 were detected by molecular biological methods (RNA sequencing, and DNA sequencing technology, etc.). […]

[4] = system: peripheral blood and/or bone marrow tumor cells and immune cells of acute myeloid leukemia (AML) patients in PVDF capsule tubes; test: IO-FIVE capsule test in nude mice, three AML patients #128, #129, #131 of Example 6 (CTG cell viability and FACS, day 14); assay type: in vivo, human
Experimental: Fresh peripheral blood samples and/or bone marrow from three acute myeloid leukemia (AML) patients (in the acute phase) were collected and placed in anticoagulant tubes, and transported to the central laboratory by cold chain (2-8° C.) within a short period of time.
Quality control analysis was performed according to the data obtained by flow cytometry so as to meet the requirement that the ratio of CD8+ T cells was at least more than 0.5% (the required minimum concentration), and the tumor cells (CD45^low/+ SSC-A^mid/hi CD33+/CD38+ cells) and the CD45^high SSC-A^lowCD3+ T lymphocytes were uniformly mixed according to a certain ratio (C/T (CD38+Cancer/CD3+T)=1.5:1 to 15:1), and then filled into PVDF tubes and sealed.
Cell viability as measured by luminescence (CTG method) on day 14: according to the viability value of the cells in the control group (as shown in FIG. 21), the proliferation viability of all the cells in the drug administration group was calculated, and then the efficacy of the drug was calculated.
Flow cytometry detection on day14: the relative ratio of tumor cells and immune cells in PVDF tubes was detected by flow cytometry. The differences between tumor cells and immune cells in the drug group and the control group were compared (as shown in FIG. 22). The results were analyzed by Flowjo software.

Row | Molecule | viability of total cells / overall tumor viability (CTG) [1] | clinical response of the patient [2] | response (cell viability by CTG, FACS) ([3]; patient #123, C/T about 15:1, CD8+ T 0.21%) | response / inhibitory effect on cell viability (CTG) compared with control vehicle ([3]; patient #124, C/T about 6:1) | proportion of cancer blasts in the capsules (FACS) ([4]; patient #128) | proportion of cancer blasts in the capsules (FACS) ([4]; patient #129) | AML blasts and CD8+ TILs (FACS) ([4]; patient #131) | response (cell viability, CTG) ([4]; patient #131, C/T 4.5)
1 | NC(=O)c1cccc2cn(-c3ccc([C@@H]4CCCNC4)cc3)nc12 [PARP inhibitor, Niraparib] | neither PD1 antibody nor PARP inhibitor mono-therapy could inhibit the overall tumor viability | poor clinical response |  |  |  |  |  | 
2 | Daratumumab [CD38 antibody] |  |  | did not respond | great response | cancer blasts still occupied a dominant proportion in the capsules | cancer blasts still occupied a dominant proportion in the capsules | less AML blasts and more CD8+ TILs | positive response
